Patent US6248586A, “Antisense modulation of PKA catalytic subunit C-alpha expression” (Isis Pharmaceuticals, Inc., priority 1999, dated 2001)

What follows are substances tested on human PKA catalytic subunit C-alpha mRNA (assay: Inhibition of PKA catalytic subunit C-alpha mRNA levels in oligonucleotide-treated cells, quantitative real-time PCR). Conditions: Table 1, phosphorothioate oligodeoxynucleotides, averages from two experiments.
Format: cell-based
Design: concentration or dose not given beside the values
Procedure: when cells reached 80% confluency, they were treated with oligonucleotide. For cells grown in 96-well plates, wells were washed once with 200 μL. OPTI-MEM™-1 reduced-serum medium (Gibco BRL) and then treated with 130 μL of OPTI-MEM™-1 containing 3.75 μg/mL LIPOFECTIN™ (Gibco BRL) and the desired concentration of oligonucleotide. After 4-7 hours of treatment, the medium was replaced with fresh medium. Cells were harvested 16-24 hours after oligonucleotide treatment.
Poly(A)+ mRNA was isolated according to Miura et al., Clin. Chem., 1996, 42, 1758-1764. Other methods for poly(A)+ mRNA isolation are taught in, for example, Ausubel, F. M. et al., Current Protocols in Molecular Biology, Volume 1, pp. 4.5.1-4.5.3, John Wiley & Sons, Inc., 1993. Briefly, for cells grown on 96-well plates, growth medium was removed from the cells and each well was washed with 200 μL cold PBS. 60 μL lysis buffer (10 mM Tris-HCl, pH 7.6, 1 mM EDTA, 0.5 M NaCl, 0.5% NP-40, 20 mM vanadyl-ribonucleoside complex) was added to each well, the plate was gently agitated and then incubated at room temperature for five minutes. 55 μL of lysate was transferred to Oligo d(T) coated 96-well plates (AGCT Inc., Irvine Calif.). Plates were incubated for 60 minutes at room temperature, washed 3 times with 200 μL of wash buffer (10 mM Tris-HCl pH 7.6, 1 mM EDTA, 0.3 M NaCl). After the final wash, the plate was blotted on paper towels to remove excess wash buffer and then air-dried for 5 minutes. 60 μL of elution buffer (5 mM Tris-HCl pH 7.6), preheated to 70° C. was added to each well, the plate was incubated on a 90° C. hot plate for 5 minutes, and the eluate was then transferred to a fresh 96-well plate.
Quantitat:ion of PKA catalytic subunit C-alpha mRNA levels was determined by real-time quantitative PCR using the ABI PRISM™ […] Sequence Detection System (PE-Applied Biosystems, Foster City, Calif.) according to manufacturer's instructions. This is a closed-tube, non-gel-based, fluorescence detection system which allows high-throughput quantitation of polymerase chain reaction (PCR) products in real-time. As opposed to standard PCR, in which amplification products are quantitated after the PCR is completed, products in real-time quantitative PCR are quantitated as they accumulate. This is accomplished by including in the PCR reaction an oligonucleotide probe that anneals specifically between the forward and reverse PCR primers, and contains two fluorescent dyes. A reporter dye (e.g., JOE, FAM, or VIC, obtained from either Operon Technologies Inc., Alameda, Calif. or PE-Applied Biosystems, Foster City, Calif.) is attached to the 5' end of the probe and a quencher dye (e.g., TAMRA, obtained from either Operon Technologies Inc., Alameda, Calif. or PE-Applied Biosystems, Foster City, Calif.) is attached to the 3' end of the probe. When the probe and dyes are intact, reporter dye emission is quenched by the proximity of the 3' quencher dye. During amplification, annealing of the probe to the target sequence creates a substrate that can be cleaved by the 5'-exonuclease activity of Taq polymerase. […] With each cycle, additional reporter dye molecules are cleaved from their respective probes, and the fluorescence intensity is monitored at regular intervals by laser optics built into the ABI PRISM™ 7700 Sequence Detection System. In each assay, a series of parallel reactions containing serial dilutions of mRNA from untreated control samples generates a standard curve that is used to quantitate the percent inhibition after antisense oligonucleotide treatment of test samples.
PCR reagents were obtained from PE-Applied Biosystems, Foster City, Calif. […]

Compared with “102436 (antisense TGGCTGCGGCCGGCGGCCCG; chemistry not given here) [compound 102436]”, “102438 (antisense GCGGCGGGTGCTGGCTGCGG; chemistry not given here) [compound 102438]” is lower in “% Inhibition of PKA catalytic subunit C-alpha mRNA levels” value (shortened to “% Inhibition”): 49% for the first, 15% for the second.

Going from “102440 (antisense TCGCGGCGGCGGCGGCCGGG; chemistry not given here) [compound 102440]” to “102442 (antisense CATCGCGGCGGCGGCGGCCG; chemistry not given here) [compound 102442]”, the “% Inhibition” value rises from 19% to 49%.

First: 102444 (antisense CCCATCGCGGCGGCGGCGGC; chemistry not given here) [compound 102444]
Second: 102446 (antisense TGCCCATCGCGGCGGCGGCG; chemistry not given here) [compound 102446]
The “% Inhibition” value of the first is higher: 47% for the first, 29% for the second.

First: 102448 (antisense GTTGCCCATCGCGGCGGCGG; chemistry not given here) [compound 102448]
Second: 102450 (antisense GCGTTGCCCATCGCGGCGGC; chemistry not given here) [compound 102450]
The “% Inhibition” value of the first is lower: 47% for the first, 64% for the second.

First: 102454 (antisense CGGCGTTGCCCATCGCGGCG; chemistry not given here) [compound 102454]
Second: 102458 (antisense GGCGGCGTTGCCCATCGCGG; chemistry not given here) [compound 102458]
The “% Inhibition” value of the first is lower: 53% for the first, 69% for the second.

Going from “102462 (antisense GCGGCGGCGTTGCCCATCGC; chemistry not given here) [compound 102462]” to “102466 (antisense CGGCGGCGGCGTTGCCCATC; chemistry not given here) [compound 102466]”, the “% Inhibition” value rises from 67% to 79%.

Going from “102470 (antisense GGCGGCGGCGGCGTTGCCCA; chemistry not given here) [compound 102470]” to “102474 (antisense ATTCTTTCACGCTCTCCTGC; chemistry not given here) [compound 102474]”, the “% Inhibition” value falls from 49% to 3%.

Going from “102478 (antisense CAAACTGATCCAAGTGGGCT; chemistry not given here) [compound 102478]” to “102482 (antisense CCAGCATCACCCGCCCGAAG; chemistry not given here) [compound 102482]”, the “% Inhibition” value falls from 73% to 66%.

First: 102486 (antisense CTTCTGTTTGTCGAGGATCT; chemistry not given here) [compound 102486]
Second: 102490 (antisense GCTTGCAGGATGCGCTTTTC; chemistry not given here) [compound 102490]
The “% Inhibition” value of the first is lower: 51% for the first, 66% for the second.

Compared with “102494 (antisense GTTGTCCTTGAAGGAGAACT; chemistry not given here) [compound 102494]”, “102498 (antisense GAACATCTCCCCGCCGGGCA; chemistry not given here) [compound 102498]” is higher in “% Inhibition” value: 0% for the first, 13% for the second.

First: 102502 (antisense TAGATGAGATCCAGCGAGTG; chemistry not given here) [compound 102502]
Second: 102506 (antisense GCGGCCCTTCACGCGCTTGG; chemistry not given here) [compound 102506]
The “% Inhibition” value of the first is higher: 28% for the first, 0% for the second.

First: 102510 (antisense TCTGCGAAGAAGGGCGGGTA; chemistry not given here) [compound 102510]
Second: 102514 (antisense TCCTTCAAGTCAGAGCTGAA; chemistry not given here) [compound 102514]
The “% Inhibition” value of the first is lower: 0% for the first, 44% for the second.

Compared with “102518 (antisense AAACCACTTGTGGTTCTTGA; chemistry not given here) [compound 102518]”, “102522 (antisense CTTCCTCATAGTCGTCAAAG; chemistry not given here) [compound 102522]” is lower in “% Inhibition” value: 34% for the first, 32% for the second.

Going from “102526 (antisense GGCATGCCCCTAAAACTCAG; chemistry not given here) [compound 102526]” to “102530 (antisense GGAGCAGCTGGTGTTTCTGT; chemistry not given here) [compound 102530]”, the “% Inhibition” value falls from 45% to 39%.

Going from “102534 (antisense TTGGCGCTTCGTTCATTTGC; chemistry not given here) [compound 102534]” to “102538 (antisense AAGCAACCCACTGAACATGT; chemistry not given here) [compound 102538]”, the “% Inhibition” value falls from 39% to 38%.

Going from “102543 (antisense GCTTCTCTTTAAAATGGATT; chemistry not given here) [compound 102543]” to “102547 (antisense ACCCTCGCAGGATTGGCAGA; chemistry not given here) [compound 102547]”, the “% Inhibition” value rises from 16% to 53%.

First: 102553 (antisense CGCTGCTGGGAGGAAAGACT; chemistry not given here) [compound 102553]
Second: 102558 (antisense TGCAGGGATGCCCTCCCCAC; chemistry not given here) [compound 102558]
The “% Inhibition” value of the first is lower: 52% for the first, 65% for the second.

Going from “102563 (antisense CCTTGAACCCCGGGCCGTGG; chemistry not given here) [compound 102563]” to “102568 (antisense CAGGCAGCCCCTCCCCAGCA; chemistry not given here) [compound 102568]”, the “% Inhibition” value falls from 56% to 49%.

Going from “102573 (antisense AGCACAAATGAGAAAGTGGG; chemistry not given here) [compound 102573]” to “102579 (antisense TGGCTCCCCAGCGGCTCCCC; chemistry not given here) [compound 102579]”, the “% Inhibition” value rises from 7% to 36%.

First: 102584 (antisense CACACAGGTTGAATCGCCCC; chemistry not given here) [compound 102584]
Second: 102589 (antisense TAGTTTTCAAATATGTTTAC; chemistry not given here) [compound 102589]
The “% Inhibition” value of the first is higher: 61% for the first, 0% for the second.

Same assay, conditions: Table 2, chimeric phosphorothioate 2'-MOE gapmers, averaged from two experiments

Compared with “102594 (antisense TGGCTGCGGCCGGCGGCCCG; chemistry not given here) [compound 102594]”, “102599 (antisense GCGGCGGGTGCTGGCTGCGG; chemistry not given here) [compound 102599]” is higher in “% Inhibition” value: 55% for the first, 77% for the second.

Going from “102604 (antisense TCGCGGCGGCGGCGGCCGGG; chemistry not given here) [compound 102604]” to “102609 (antisense CATCGCGGCGGCGGCGGCCG; chemistry not given here) [compound 102609]”, the “% Inhibition” value falls from 70% to 66%.
